Source: patent US10294202B2, “Pyrrolidinones as herbicides” (FMC Corporation, priority 2013, dated 2019)

Columns and labels:
[1] = test system: ragweed; assay: Test A pre-/postemergence herbicide test; assay type: in vivo, Ambrosia elatior; conditions: for Plant response rating, Ragweed: 0 to 100 scale
In short: (§1)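 Both application timings used compounds in a non-phytotoxic solvent plus surfactant. Pre-emergence: soil sprayed directly after seeding into loam/sand. Post-emergence: foliage of 2–10 cm seedlings (1–2 leaves) sprayed. Injury rated ~10 days later, 0–100.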

[2] = test system: barnyardgrass; assay: Test A pre-/postemergence herbicide test; assay type: in vivo, Echinochloa crus-galli; conditions: for Plant response rating, Barnyardgrass: 0 to 100 scale
In short: as §1

[3] = test system: kochia; assay: Test A pre-/postemergence herbicide test; assay type: in vivo, Kochia scoparia; conditions: for Plant response rating, Kochia: 0 to 100 scale
In short: as §1

[4] = test system: wheat; assay: Test A pre-/postemergence herbicide test; assay type: in vivo, Triticum aestivum; conditions: Postemergence; for Plant response rating, Wheat: 125 g ai/ha, 0 to 100 scale, 0 is no effect, 100 is complete control; for Wheat plant response rating (0 to 100 scale, 0 is no effect, 100 is complete control): 500 g ai/ha
In short: as §1

[5] = test system: rice; assay: Test B flooded paddy test; assay type: in vivo, Oryza sativa; conditions: Flood, scale of 0 to 100 where 0 is no effect and 100 is complete control
In short: (§2)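 Plants grown to 2-leaf stage; pots flooded 3 cm above soil and compound applied directly into paddy water, depth held throughout. Visual rating against untreated controls after 13 to 15 days in greenhouse, 0 (no effect) to 100 (complete control).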

[6] = test system: blackgrass; assay: Test A postemergence herbicide test; assay type: in vivo, Alopecurus myosuroides; conditions: for Plant response rating, Blackgrass: 125 g ai/ha, 0 to 100 scale, 0 is no effect, 100 is complete control; for Blackgrass plant response rating (0 to 100 scale, 0 is no effect, 100 is complete control): 500 g ai/ha
In short: (§3)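 Young potted plants in a loam–sand mix, one- to two-leaf stage and 2–10 cm tall, receive the test chemical postemergence and stay in a greenhouse for approximately 10 days. Injury is then judged by eye against untreated plants, scored 0 (none) to 100 (complete control).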

[7] = test system: ryegrass, Italian; assay: Test A pre-/postemergence herbicide test; assay type: in vivo, Lolium multiflorum; conditions: for Plant response rating, Ryegrass, Italian: 0 to 100 scale
In short: as §1

[8] = test system: pigweed; assay: Test A pre-/postemergence herbicide test; assay type: in vivo, Amaranthus retroflexus; conditions: for Plant response rating, Pigweed: 0 to 100 scale
In short: as §1

[9] = test system: sedge, umbrella; assay: Test B flooded paddy test; assay type: in vivo, Cyperus difformis; conditions: Flood, scale of 0 to 100 where 0 is no effect and 100 is complete control
In short: as §2

[10] = test system: galium; assay: Test A postemergence herbicide test; assay type: in vivo, Galium aparine; conditions: for Plant response rating, Galium: 125 g ai/ha, 0 to 100 scale, 0 is no effect, 100 is complete control; for Galium plant response rating (0 to 100 scale, 0 is no effect, 100 is complete control): 500 g ai/ha
In short: as §3

[11] = test system: giant foxtail; assay: Test A pre-/postemergence herbicide test; assay type: in vivo, Setaria faberii; conditions: for Plant response rating, Foxtail, Giant: 0 to 100 scale
In short: as §1

[12] = test system: corn; assay: Test A pre-/postemergence herbicide test; assay type: in vivo, Zea mays; conditions: Postemergence; for Plant response rating, Corn: 125 g ai/ha, 0 to 100 scale, 0 is no effect, 100 is complete control; for Corn plant response rating (0 to 100 scale, 0 is no effect, 100 is complete control): 500 g ai/ha
In short: as §1

[13] = test system: ducksalad; assay: Test B flooded paddy test; assay type: in vivo, Heteranthera limosa; conditions: Flood, scale of 0 to 100 where 0 is no effect and 100 is complete control
In short: as §2

[14] = test system: barnyardgrass; assay: Test B flooded paddy test; assay type: in vivo, Echinochloa crus-galli; conditions: Flood, scale of 0 to 100 where 0 is no effect and 100 is complete control
In short: as §2

[15] = 125 g ai/ha, visual rating, 0 no effect, 100 complete control, approximately 10 days, preemergence
[16] = Postemergence, 125 g ai/ha, 0 is no effect, 100 is complete control
[17] = preemergence, 500 g ai/ha, 0 is no effect and 100 is complete control

| SMILES | Plant response rating, Ragweed [1, 15] | Plant response rating, Ragweed [1, 16] | Ragweed plant response rating (0 to 100 scale, 0 is no effect, 100 is complete control) ([1]; Postemergence, 500 g ai/ha) | Plant response rating, Ragweed [1, 17] | Plant response rating, Barnyardgrass [2, 15] | Plant response rating, Barnyardgrass [2, 16] | Barnyardgrass plant response rating (0 to 100 scale, 0 is no effect, 100 is complete control) ([2]; Postemergence, 500 g ai/ha) | Plant response rating, Barnyardgrass [2, 17] | Plant response rating, Kochia [3, 15] | Plant response rating, Kochia [3, 16] | Kochia plant response rating (0 to 100 scale, 0 is no effect, 100 is complete control) ([3]; Postemergence, 500 g ai/ha) | Plant response rating, Kochia [3, 17] | Plant response rating, Wheat [4] | Wheat plant response rating (0 to 100 scale, 0 is no effect, 100 is complete control) [4] | Plant response rating, Blackgrass [6] | Blackgrass plant response rating (0 to 100 scale, 0 is no effect, 100 is complete control) [6] | Plant response rating, Ryegrass, Italian [7, 15] | Plant response rating, Ryegrass, Italian [7, 16] | Ryegrass, Italian plant response rating (0 to 100 scale, 0 is no effect, 100 is complete control) ([7]; Postemergence, 500 g ai/ha) | Plant response rating, Ryegrass, Italian [7, 17] | also measured |
| --- | --- | --- | --- | --- | --- | --- | --- | --- | --- | --- | --- | --- | --- | --- | --- | --- | --- | --- | --- | --- | --- |
| CCCN1CC(c2ccc(C(F)(F)F)cc2)C(C(=O)Nc2cccc(F)c2F)C1=O (stereo not drawn) [Compound 182] | 0 | 0 | 0 | 0 | 0 | 0 | 0 | 0 | 0 | 0 | 0 | 0 | 0 | 0 | 0 | 0 | 0 | 0 | 0 | 0 | Plant response rating, Rice ([5]; 500 g ai/ha): 0; Plant response rating, Pigweed [8, 15]: 0; Plant response rating, Pigweed [8, 16]: 0; Pigweed plant response rating (0 to 100 scale, 0 is no effect, 100 is complete control) ([8]; Postemergence, 500 g ai/ha): 0; Plant response rating, Pigweed [8, 17]: 0; Plant response rating, Sedge, Umbrella ([9]; 500 g ai/ha): 0; Plant response rating, Galium [10]: 0; Galium plant response rating (0 to 100 scale, 0 is no effect, 100 is complete control) [10]: 0; Plant response rating, Foxtail, Giant [11, 15]: 50; Plant response rating, Foxtail, Giant [11, 16]: 0; Foxtail, Giant plant response rating (0 to 100 scale, 0 is no effect, 100 is complete control) ([11]; Postemergence, 500 g ai/ha): 10; Plant response rating, Foxtail, Giant [11, 17]: 70; Plant response rating, Corn [12]: 0; Corn plant response rating (0 to 100 scale, 0 is no effect, 100 is complete control) [12]: 0; Plant response rating, Ducksalad ([13]; 500 g ai/ha): 30; Plant response rating, Barnyardgrass ([14]; 500 g ai/ha): 0 |
| O=C1NCC(c2cccc(S(F)(F)(F)(F)F)c2)C1C(=O)Nc1cccc(F)c1F (stereo not drawn) [Compound 214] | 0 | 0 | 0 | 0 | 70 | 60 | 70 | 80 | 0 | 0 | 40 | 80 | 0 | 50 | 40 | 70 | 0 | 10 | 30 | 0 | Plant response rating, Rice ([5]; 1000 g ai/ha): 20; Plant response rating, Pigweed [8, 15]: 0; Plant response rating, Pigweed [8, 16]: 0; Pigweed plant response rating (0 to 100 scale, 0 is no effect, 100 is complete control) ([8]; Postemergence, 500 g ai/ha): 50; Plant response rating, Pigweed [8, 17]: 70; Plant response rating, Sedge, Umbrella ([9]; 1000 g ai/ha): 0; Plant response rating, Galium [10]: 40; Galium plant response rating (0 to 100 scale, 0 is no effect, 100 is complete control) [10]: 70; Plant response rating, Foxtail, Giant [11, 15]: 80; Plant response rating, Foxtail, Giant [11, 16]: 80; Foxtail, Giant plant response rating (0 to 100 scale, 0 is no effect, 100 is complete control) ([11]; Postemergence, 500 g ai/ha): 90; Plant response rating, Foxtail, Giant [11, 17]: 90; Plant response rating, Corn [12]: 30; Corn plant response rating (0 to 100 scale, 0 is no effect, 100 is complete control) [12]: 50; Plant response rating, Ducksalad ([13]; 1000 g ai/ha): 90; Plant response rating, Barnyardgrass ([14]; 1000 g ai/ha): 75 |
| O=C1NCC(c2cccc(S(F)(F)(F)(F)F)c2)C1C(=O)Nc1ccccc1C(F)(F)F (stereo not drawn) [Compound 215] | 0 | 0 | 10 | 0 | 60 | 50 | 60 | 80 | 0 | 0 | 0 | 0 | 0 | 0 | 30 | 50 | 0 | 0 | 0 | 10 | Plant response rating, Rice ([5]; 1000 g ai/ha): 0; Plant response rating, Pigweed [8, 15]: 0; Plant response rating, Pigweed [8, 16]: 50; Pigweed plant response rating (0 to 100 scale, 0 is no effect, 100 is complete control) ([8]; Postemergence, 500 g ai/ha): 60; Plant response rating, Pigweed [8, 17]: 50; Plant response rating, Sedge, Umbrella ([9]; 1000 g ai/ha): 0; Plant response rating, Galium [10]: 40; Galium plant response rating (0 to 100 scale, 0 is no effect, 100 is complete control) [10]: 60; Plant response rating, Foxtail, Giant [11, 15]: 80; Plant response rating, Foxtail, Giant [11, 16]: 80; Foxtail, Giant plant response rating (0 to 100 scale, 0 is no effect, 100 is complete control) ([11]; Postemergence, 500 g ai/ha): 80; Plant response rating, Foxtail, Giant [11, 17]: 90; Plant response rating, Corn [12]: 0; Corn plant response rating (0 to 100 scale, 0 is no effect, 100 is complete control) [12]: 0; Plant response rating, Ducksalad ([13]; 1000 g ai/ha): 80; Plant response rating, Barnyardgrass ([14]; 1000 g ai/ha): 60 |
